Assay results taken from patent US9255090B2, “Heterocyclyl derivatives and their use as prostaglandin D2 receptor modulators” (Actelion Pharmaceuticals Ltd., priority 2012, dated 2016).

How the values were obtained:
hCRTH2 receptor = hCRTH2 receptor (Homo sapiens (Human), UniProt Q9Y5Y4); assay: hCRTH2 receptor membranes radioligand (3H-PGD2) displacement assay; assay type: binding; conditions: 3H-PGD2 radioligand displacement, HEK293-hCRTH2 membranes
Method in brief: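 HEK293-hCRTH2 membranes, 20 μg/well; 3H-PGD2 added at 2.5 nM; binding buffer 50 mM Tris, 10 mM MnCl2, 1 mM EDTA, pH 7.0; 90 min RT; GF/C filtration, scintillation count. Nonspecific binding: PGD2 at […].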

eosinophils = assay: Eosinophil shape change assay with human plasma; assay type: cell-based; conditions: Homo sapiens, Eosinophil, human plasma (50%), PGD2 100 nM activation, antagonistic activity
Method in brief: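 Human polymorphonuclear cells stained with anti-CD49d-APC, combined with compound-preincubated human plasma (50% of final volume, 4×10^6 cells/ml) for 10 min at 37° C., then stimulated 5 min with 100 nM PGD2 and fixed. Flow cytometry scored percent eosinophils with increased forward scatter.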

Sequence of hCRTH2 receptor (Q9Y5Y4 whole entry): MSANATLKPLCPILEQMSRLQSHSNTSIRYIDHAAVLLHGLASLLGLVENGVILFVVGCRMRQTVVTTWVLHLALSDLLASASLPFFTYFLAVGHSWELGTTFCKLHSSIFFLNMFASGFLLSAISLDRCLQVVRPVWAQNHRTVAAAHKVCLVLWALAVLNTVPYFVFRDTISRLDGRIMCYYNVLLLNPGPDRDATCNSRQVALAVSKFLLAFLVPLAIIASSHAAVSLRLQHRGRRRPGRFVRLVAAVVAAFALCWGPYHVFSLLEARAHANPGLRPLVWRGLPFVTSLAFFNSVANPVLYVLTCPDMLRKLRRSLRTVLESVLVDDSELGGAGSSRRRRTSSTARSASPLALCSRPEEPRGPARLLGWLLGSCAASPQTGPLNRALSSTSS

`COc1ccc(CC(=O)O)cc1-c1ccc(F)c2c1CN(C(=O)OCc1ccc(F)cc1)CC2` [Example 139, 8-(5-Carboxymethyl-2-methoxy-phenyl)-5-fluoro-3,4-dihydro-1H-isoquinoline-2-carboxylic acid 4-fluoro-benzyl ester] showed an IC50 (hCRTH2 receptor) of 2.53 nM and an IC50 (eosinophils) of 97 nM.

`COc1ccc(CC(=O)O)cc1-c1ccc(F)c2c1CN(C(=O)C[C@@H](C)c1ccccc1)CC2` [Example 106, {3-[5-Fluoro-2-((R)-3-phenyl-butyryl)-1,2,3,4-tetrahydro-isoquinolin-8-yl]-4-methoxy-phenyl}-acetic acid] showed an IC50 (hCRTH2 receptor) of 10.4 nM and an IC50 (eosinophils) of 37 nM.

`CC(C)COc1ccc(CC(=O)O)cc1-c1ccc(F)c2c1CN(C(=O)OCc1ccccc1)CC2` [Example 198, 8-(5-Carboxymethyl-2-isobutoxy-phenyl)-5-fluoro-3,4-dihydro-1H-isoquinoline-2-carboxylic acid benzyl ester] gave an IC50 (hCRTH2 receptor) of 1.28 nM and an IC50 (eosinophils) of 72 nM.

`CCOc1cc(CC(=O)O)ccc1-c1ccc(F)c2c1CN(C(=O)O[C@@H](C)c1ccccc1)CC2` [Example 389, 8-(4-Carboxymethyl-2-ethoxy-phenyl)-5-fluoro-3,4-dihydro-1H-isoquinoline-2-carboxylic acid (S)-1-phenyl-ethyl ester] was tested, and the IC50 (hCRTH2 receptor) was 16.7 nM and the IC50 (eosinophils) was 122 nM.

With `CCOc1ccc(CC(=O)O)cc1-c1ccc(F)c2c1CN(C(=O)CC(C)c1ccccn1)CC2` (racemic) [Example 345] the IC50 (hCRTH2 receptor) was 4.8 nM and the IC50 (eosinophils) was 31 nM.

Work on `CCOc1cc(CC(=O)O)ccc1-c1ccc(F)c2c1CN(C(=O)CC(C)(C)c1ccc(F)cc1)CC2` [Example 237, (3-Ethoxy-4-{5-fluoro-2-[3-(4-fluoro-phenyl)-3-methyl-butyryl]-1,2,3,4-tetrahydro-isoquinolin-8-yl}-phenyl)-acetic acid] yielded an IC50 (hCRTH2 receptor) of 0.3 nM and an IC50 (eosinophils) of 9 nM.

`O=C(O)Cc1ccc(OCC(F)(F)F)c(-c2ccc(F)c3c2CN(C(=O)OCc2ccccc2)CC3)c1` [Example 421, 8-[5-Carboxymethyl-2-(2,2,2-trifluoro-ethoxy)-phenyl]-5-fluoro-3,4-dihydro-1H-isoquinoline-2-carboxylic acid benzyl ester] was tested, and the IC50 (hCRTH2 receptor) was 3.8 nM and the IC50 (eosinophils) was 16 nM.

Work on `COc1ccc(CC(=O)O)cc1-c1ccc(F)c2c1CN(C(=O)CC1COCc3ccccc31)CC2` (racemic) [Example 271] yielded an IC50 (hCRTH2 receptor) of 22.3 nM and an IC50 (eosinophils) of 91 nM.

`COc1ccc(CC(=O)O)cc1-c1ccc(F)c2c1CN(C(=O)OCc1cccc(F)c1F)CC2` [Example 147, 8-(5-Carboxymethyl-2-methoxy-phenyl)-5-fluoro-3,4-dihydro-1H-isoquinoline-2-carboxylic acid 2,3-difluoro-benzyl ester] showed an IC50 (hCRTH2 receptor) of 2.51 nM and an IC50 (eosinophils) of 622 nM.

`CCOc1cc(CC(=O)O)ccc1-c1ccc(F)c2c1CN(C(=O)OCc1ccc(F)cc1F)CC2` [Example 409, 8-(4-Carboxymethyl-2-ethoxy-phenyl)-5-fluoro-3,4-dihydro-1H-isoquinoline-2-carboxylic acid 2,4-difluoro-benzyl ester] gave an IC50 (hCRTH2 receptor) of 3.9 nM and an IC50 (eosinophils) of 5 nM.

Work on `COc1ccc(OCC(=O)O)cc1-c1ccc(F)c2c1CN(C(=O)[C@@H]1C[C@H]1c1ccccc1)CC2` [Example 182, {3-[5-Fluoro-2-((1R,2R)-2-phenyl-cyclopropanecarbonyl)-1,2,3,4-tetrahydro-isoquinolin-8-yl]-4-methoxy-phenoxy}-acetic acid] yielded an IC50 (hCRTH2 receptor) of 4.36 nM and an IC50 (eosinophils) of 34 nM.

For `CCOc1ccc(CC(=O)O)cc1-c1ccc(F)c2c1CN(C(=O)C(C)Cc1ccccc1)CC2` (centres unmarked) [Example 214], the IC50 (hCRTH2 receptor) was 3.1 nM and the IC50 (eosinophils) was 11 nM.

With `CCOc1cc(CC(=O)O)ccc1-c1ccc(F)c2c1CN(C(=O)OCc1cccc(F)c1)CC2` [Example 405, 8-(4-Carboxymethyl-2-ethoxy-phenyl)-5-fluoro-3,4-dihydro-1H-isoquinoline-2-carboxylic acid 3-fluoro-benzyl ester] the IC50 (hCRTH2 receptor) was 2.7 nM and the IC50 (eosinophils) was 20 nM.

Compound `COc1ccc(CC(=O)O)cc1-c1ccc(F)c2c1CN(C(=O)CN(C)C(c1ccccc1)c1ccc(Cl)cc1)CC2` (racemic) [Example 253] has an IC50 (hCRTH2 receptor) of 10.6 nM and an IC50 (eosinophils) of 399 nM.

For `COc1ccc(CC(=O)O)cc1-c1ccc(F)c2c1CCN(C(=O)[C@@H]1C[C@H]1c1ccccc1)CC2` (racemic) [Example 36, (±)-{3-[9-Fluoro-3-(trans-2-phenyl-cyclopropanecarbonyl)-2,3,4,5-tetrahydro-1H-benzo[d]azepin-6-yl]-4-methoxy-phenyl}-acetic acid], the IC50 (hCRTH2 receptor) was 19.9 nM and the IC50 (eosinophils) was greater than 1000 nM.

With `COc1cc(CC(=O)O)ccc1-c1ccc(F)c2c1CN(C(=O)COCc1ccccc1Cl)CC2` [Example 193, (4-{2-[2-(2-Chloro-benzyloxy)-acetyl]-5-fluoro-1,2,3,4-tetrahydro-isoquinolin-8-yl}-3-methoxy-phenyl)-acetic acid] the IC50 (hCRTH2 receptor) was 1.38 nM and the IC50 (eosinophils) was 94 nM.

For `COc1cc(CC(=O)O)ccc1-c1ccc(F)c2c1CN(C(=O)CC(C)(C)c1ccccc1)CC2` [Example 188, {4-[5-Fluoro-2-(3-methyl-3-phenyl-butyryl)-1,2,3,4-tetrahydro-isoquinolin-8-yl]-3-methoxy-phenyl}-acetic acid], the IC50 (hCRTH2 receptor) was 0.53 nM and the IC50 (eosinophils) was 8 nM.

With `O=C(O)Cc1ccc(OC(F)F)c(-c2ccc(F)c3c2CN(C(=O)OCc2ccccc2)CC3)c1` [Example 412, 8-(5-Carboxymethyl-2-difluoromethoxy-phenyl)-5-fluoro-3,4-dihydro-1H-isoquinoline-2-carboxylic acid benzyl ester] the IC50 (hCRTH2 receptor) was 1.8 nM and the IC50 (eosinophils) was 47 nM.

Work on `COc1cc(CC(=O)O)ccc1-c1ccc(F)c2c1CN(C(=O)CCc1cn(C)c3ccccc13)CC2` [Example 183, (4-{5-Fluoro-2-[3-(1-methyl-1H-indol-3-yl)-propionyl]-1,2,3,4-tetrahydro-isoquinolin-8-yl}-3-methoxy-phenyl)-acetic acid] yielded an IC50 (hCRTH2 receptor) of 0.46 nM and an IC50 (eosinophils) of 194 nM.

Compound `CCOc1ccc(CC(=O)O)cc1-c1ccc(F)c2c1CN(C(=O)CC(C)c1ccc(F)cc1)CC2` (racemic) [Example 278] has an IC50 (hCRTH2 receptor) of 3.9 nM and an IC50 (eosinophils) of 19 nM.

In the case of `COc1cc(CC(=O)O)ccc1-c1ccc(F)c2c1CN(C(=O)C[C@@H](C)c1ccccc1)CC2` [Example 189, {4-[5-Fluoro-2-((R)-3-phenyl-butyryl)-1,2,3,4-tetrahydro-isoquinolin-8-yl]-3-methoxy-phenyl}-acetic acid], the IC50 (hCRTH2 receptor) is reported as 1.04 nM and the IC50 (eosinophils) is reported as 62 nM.

With `O=C(O)Cc1cc2c(c(-c3ccc(F)c4c3CN(C(=O)OCc3ccccc3)CC4)c1)OCCO2` [Example 168, 8-(7-Carboxymethyl-2,3-dihydro-benzo[1,4]dioxin-5-yl)-5-fluoro-3,4-dihydro-1H-isoquinoline-2-carboxylic acid benzyl ester] the IC50 (hCRTH2 receptor) was 17.9 nM and the IC50 (eosinophils) was 133 nM.

`CCOc1ccc(CC(=O)O)cc1-c1ccc(F)c2c1CN(C(=O)OCc1ccccc1F)CC2` [Example 400, 8-(5-Carboxymethyl-2-ethoxy-phenyl)-5-fluoro-3,4-dihydro-1H-isoquinoline-2-carboxylic acid 2-fluoro-benzyl ester] gave an IC50 (hCRTH2 receptor) of 12.8 nM and an IC50 (eosinophils) of 21 nM.

In the case of `CCOc1cc(CC(=O)O)ccc1-c1ccc(F)c2c1CN(C(=O)CC(C)(C)c1ccccc1)CC2` [Example 238, {3-Ethoxy-4-[5-fluoro-2-(3-methyl-3-phenyl-butyryl)-1,2,3,4-tetrahydro-isoquinolin-8-yl]-phenyl}-acetic acid], the IC50 (hCRTH2 receptor) is reported as 0.6 nM and the IC50 (eosinophils) is reported as 15 nM.

Work on `COc1ccc(CC(=O)O)cc1-c1ccc(C(F)(F)F)c2c1CN(C(=O)[C@@H]1C[C@H]1c1ccccc1)CC2` (racemic) [Example 83, (±)-{4-Methoxy-3-[2-(trans-2-phenyl-cyclopropanecarbonyl)-5-trifluoromethyl-1,2,3,4-tetrahydro-isoquinolin-8-yl]-phenyl}-acetic acid] yielded an IC50 (hCRTH2 receptor) of 26.1 nM and an IC50 (eosinophils) greater than 1000 nM.

With `O=C(O)Cc1ccc(OCC(F)F)c(-c2ccc(F)c3c2CN(C(=O)OCc2ccccc2)CC3)c1` [Example 413, 8-[5-Carboxymethyl-2-(2,2-difluoro-ethoxy)-phenyl]-5-fluoro-3,4-dihydro-1H-isoquinoline-2-carboxylic acid benzyl ester] the IC50 (hCRTH2 receptor) was 0.8 nM and the IC50 (eosinophils) was 44 nM.

Work on `COc1ccc(CC(=O)O)cc1-c1cc(F)cc2c1CN(C(=O)[C@@H]1C[C@H]1c1ccccc1)CC2` [Example 34, {3-[6-Fluoro-2-((1R,2R)-2-phenyl-cyclopropanecarbonyl)-1,2,3,4-tetrahydro-isoquinolin-8-yl]-4-methoxy-phenyl}-acetic acid] yielded an IC50 (hCRTH2 receptor) of 2.7 nM and an IC50 (eosinophils) of 25 nM.

Compound `CCOc1cc(CC(=O)O)ccc1-c1ccc(F)c2c1CN(C(=O)OCc1cc(Cl)ccc1F)CC2` [Example 408, 8-(4-Carboxymethyl-2-ethoxy-phenyl)-5-fluoro-3,4-dihydro-1H-isoquinoline-2-carboxylic acid 5-chloro-2-fluoro-benzyl ester] has an IC50 (hCRTH2 receptor) of 2 nM and an IC50 (eosinophils) of 8 nM.

For `CCOc1cc(CC(=O)O)ccc1-c1ccc(F)c2c1CN(C(=O)OCc1ccccc1F)CC2` [Example 406, 8-(4-Carboxymethyl-2-ethoxy-phenyl)-5-fluoro-3,4-dihydro-1H-isoquinoline-2-carboxylic acid 2-fluoro-benzyl ester], the IC50 (hCRTH2 receptor) was 7.7 nM and the IC50 (eosinophils) was 10 nM.

Compound `COc1cc(CC(=O)O)ccc1-c1ccc(F)c2c1CN(C(=O)CCc1ccccc1C)CC2` [Example 194, {4-[5-Fluoro-2-(3-o-tolyl-propionyl)-1,2,3,4-tetrahydro-isoquinolin-8-yl]-3-methoxy-phenyl}-acetic acid] has an IC50 (hCRTH2 receptor) of 0.75 nM and an IC50 (eosinophils) of 188 nM.

`CCCOc1ccc(CC(=O)O)cc1-c1ccc(F)c2c1CN(C(=O)OCc1ccccc1)CC2` [Example 197, 8-(5-Carboxymethyl-2-propoxy-phenyl)-5-fluoro-3,4-dihydro-1H-isoquinoline-2-carboxylic acid benzyl ester] gave an IC50 (hCRTH2 receptor) of 0.28 nM and an IC50 (eosinophils) of 24 nM.
